Data on 13 compounds can be found in patent publication US20210369710A1, “MODULATORS OF MYC FAMILY PROTO-ONCOGENE PROTEIN” (Nalo Therapeutics, priority 2019, published 2021).

One experiment deals with T1, MycN Protein (Homo sapiens, UniProt P04198).
T1 construct: endogenous in cells; host or cells: HL-60 or SKNBE2
T1 sequence (P04198 1-464): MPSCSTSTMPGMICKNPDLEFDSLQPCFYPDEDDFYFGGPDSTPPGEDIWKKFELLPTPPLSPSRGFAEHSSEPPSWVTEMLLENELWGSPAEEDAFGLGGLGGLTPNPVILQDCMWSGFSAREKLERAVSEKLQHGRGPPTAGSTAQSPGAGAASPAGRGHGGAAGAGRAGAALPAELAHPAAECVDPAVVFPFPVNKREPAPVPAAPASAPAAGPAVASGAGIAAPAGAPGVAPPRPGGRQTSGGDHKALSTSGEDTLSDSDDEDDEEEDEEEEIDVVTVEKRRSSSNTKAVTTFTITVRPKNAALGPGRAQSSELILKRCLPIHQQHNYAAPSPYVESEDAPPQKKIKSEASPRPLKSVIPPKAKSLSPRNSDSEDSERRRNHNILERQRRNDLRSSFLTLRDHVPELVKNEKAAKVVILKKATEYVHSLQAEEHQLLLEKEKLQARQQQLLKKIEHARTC
Put plainly: Degradation of MycN protein, Western blot band density in cells. Type of experiment: cell-based. The conditions noted are these: HL-60 or SKNBE2 cells; 6 uL of compound (1 mM) added to 3 mL cells; 6 hours; Western blot band density (ImageJ). As to the method:
(§1) In a T150 flask was plated either 2×10^6 of HL-60 (human leukemia cell line) or SKNBE2 (neuroblastoma cell line) cells in a total of 30 mL containing Roswell Park Memorial Institute (RPMI) 1640 Medium (Thermo Fisher, Cat. #11875-085), 10% Fetal Bovine Serum (FBS, Thermo Fisher: Cat. #10437-028), 1% Penicillin/streptomycin (Thermo Fisher: Cat. #10378016), and 1% Amophotericin B (Thermo Fisher, Cat. #15290026). The cells were split every 72 hours by reseeding the HL-60 or SKNBE2 cells, and the passage number was noted. It is noteworthy that cell cultures that were above 40 passages were not used, and most experiments were done with cells of less than 30 passages.
(§2) In a 6-well cell culture plate, a total of 3 mL of either 1×10^6 cells/mL of HL-60 or SKNBE2 cells were seeded, resulting in a total of 3×10^6 cells per well. To each well containing 3 mL of either HL-60 or SKNBE2 cell line was added 6 uL of MycN modulating compound (1 mM) and the resulting plate was shaken from left to right, and not swirled. After 6 hours, the cells were placed in a 15 mL falcon tube and spun at 500 Gs at 4° C. in a swinging bucket centrifuge. The medium was then carefully removed without disturbing the pellet. The pellet was then washed with 3 mLs of chilled phosphate buffered saline (PBS) and subjected to the spin cycle. PBS was then removed and the pellet was lysed in 200 uL of radioimmunoprecipitation (RIPA) lysis buffer (Thermo Fisher: Cat. #899000) that is supplemented with protease and phosphatase inhibitors (Thermo Fisher: Cat. #A32959). The cell lysate was then subjected to spinning in a centrifuge for 10 minutes at 13000G at 4° C. The supernatant was then carefully transferred to a fresh eppendorf tube without disturbing the pellet (˜180 uL). The protein concentration of the cell lysate was then determined by using a bicinchoninic acid (BCA assay) according to manufacturer's protocol (Thermo Fisher: Cat. #23227).
(§3) Cell lysate, approximately 25 ug-30 ug, was loaded per well in a 4-20% polyacrylamide gel (Biorad. Cat. #5671094). After running the dye front off of the gel, the gel was transferred to a nitrocellulose membrane (Biorad: Cat. #1704159) using the transblot turbo system (Biorad: Cat. #1704150) according to manufacturer's protocol. After transferring for 30 minutes, the membrane was blocked with 5% BSA for 1 hour at room temperature. The BSA was then washed off and the primary antibody of choice (1:500) was added, and the membrane was incubated with the primary antibody at 4° C. for overnight. The next morning, the primary antibody was removed and the membrane was washed with 1×-TBST for 10 minutes and repeated three more times. Following the last wash, a secondary antibody (Molecular Devices. Cat. #R8209 or R8208) was added at 1:5000 dilution and incubated for 1 hour at room temperature. Following the incubation with the secondary antibody, the membrane was washed with 1×-TBST for 10 minutes and repeated three more times. Following the last wash, the membrane was washed with de-ionized water twice and dried for at least two hours. Once the membrane is completely dry, the Molecular Devices Spectra Max western system was used to observe the bands. The western image was saved and the band density was measured with ImageJ software.

Another experiment has as its target T2, MycC Protein (Homo sapiens, UniProt P01106).
T2 construct: endogenous in cells; host or cells: HL-60 or SKNBE2
Put plainly: Degradation of MycC protein, Western blot band density in cells. The format is cell-based. The conditions noted are these: HL-60 or SKNBE2 cells; 6 uL of compound (1 mM) added to 3 mL cells; 6 hours; Western blot band density (ImageJ). As to the method:
as §1, §2, §3

T2 sequence (P01106 whole entry): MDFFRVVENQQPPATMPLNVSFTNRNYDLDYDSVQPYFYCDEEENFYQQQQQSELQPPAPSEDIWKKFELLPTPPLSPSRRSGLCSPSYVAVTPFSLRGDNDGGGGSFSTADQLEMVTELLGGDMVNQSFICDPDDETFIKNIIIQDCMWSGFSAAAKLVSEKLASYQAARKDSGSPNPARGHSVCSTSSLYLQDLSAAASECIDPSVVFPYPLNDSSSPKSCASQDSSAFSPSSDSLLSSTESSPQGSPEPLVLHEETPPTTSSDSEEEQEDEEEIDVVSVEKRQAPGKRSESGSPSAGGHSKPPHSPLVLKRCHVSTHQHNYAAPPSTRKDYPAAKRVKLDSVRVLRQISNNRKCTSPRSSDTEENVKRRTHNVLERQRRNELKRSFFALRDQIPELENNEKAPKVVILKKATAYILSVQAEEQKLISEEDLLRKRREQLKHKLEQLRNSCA

As for `O=C(NC1COC1)N[C@H]1CC[C@H](Nc2nccc(Nc3cc(C4CCCC4)[nH]n3)n2)CC1` [Compound 46], the Dmax at 2 µM on MycN Protein was 20 to 49%; on MycC Protein, less than 20%.

With `O=C(NC1CC2(COC2)C1)N[C@H]1CC[C@H](Nc2nccc(Nc3cc(C4CCCC4)[nH]n3)n2)CC1` [Compound 47], the Dmax at 2 µM at MycN Protein and on MycC Protein was less than 20% throughout.

Take `CC(=O)N1CC(NC(=O)N[C@H]2CC[C@H](Nc3nccc(Nc4cc(C5CCCC5)[nH]n4)n3)CC2)C1` [Compound 48, 1-(1-acetylazetidin-3-yl)-3-((1R,4R)-4-((4-((5-cyclopentyl-1H-pyrazol-3-yl)amino)pyrimidin-2-yl)amino)cyclohexyl)urea]: the Dmax at 2 µM on MycN Protein is less than 20%; at MycC Protein it was 20 to 49%.

For `O=C(NC1CCC2(CC1)COC2)N[C@H]1CC[C@H](Nc2nccc(Nc3cc(C4CCCC4)[nH]n3)n2)CC1` [Compound 49, 1-((1R,4R)-4-((4-((5-cyclopentyl-1H-pyrazol-3-yl)amino)pyrimidin-2-yl)amino)cyclohexyl)-3-(2-oxaspiro[3.5]nonan-7-yl)urea], the Dmax at 2 µM at MycN Protein and at MycC Protein was less than 20% in each case.

For the compound `O=C(N[C@H]1CC[C@H](Nc2nccc(Nc3cc(C4CCCC4)[nH]n3)n2)CC1)N[C@H]1C[C@H](c2ccccc2)C1` [Compound 52, 1-((1R,4R)-4-((4-((5-cyclopentyl-1H-pyrazol-3-yl)amino)pyrimidin-2-yl)amino)cyclohexyl)-3-(3-phenylcyclobutyl)urea], the Dmax at 2 µM on MycN Protein and at MycC Protein was 80 to 100% throughout.

For `N#Cc1cccc([C@H]2C[C@H](NC(=O)N[C@H]3CC[C@H](Nc4nccc(Nc5cc(C6CCOC6)[nH]n5)n4)CC3)C2)c1` (some centres unmarked) [Compound 53], the Dmax at 2 µM at MycN Protein and at MycC Protein was less than 20% in each case.

With `CS(=O)(=O)N1CC(NC(=O)N[C@H]2CC[C@H](Nc3nccc(Nc4cc(C5CCCC5)[nH]n4)n3)CC2)C1` [Compound 56], the Dmax at 2 µM on MycN Protein was less than 20%; on MycC Protein, 20 to 49%.

Consider `CS(=O)(=O)[C@H]1C[C@H](NC(=O)N[C@H]2CC[C@H](Nc3nccc(Nc4cc(C5CCCC5)[nH]n4)n3)CC2)C1` [Compound 57], for which the results for the Dmax at 2 µM on MycN Protein and at MycC Protein were less than 20% and 50 to 79%, respectively.

Turning to `O=C(NC1CCC(Nc2nccc(Nc3cc(C4CCCC4)[nH]n3)n2)CC1)NC1CCCN(C2CC2)C1` [Compound 60, 1-((1R,4R)-4-((4-((5-cyclopentyl-1H-pyrazol-3-yl)amino)pyrimidin-2-yl)amino)cyclohexyl)-3-(1-cyclopropylpiperidine-3-yl)urea], the maximal degradation (Dmax) at 2 µM at MycN Protein is less than 20%; at MycC Protein, 50 to 79%.

For the compound `O=C(NC1CCC(Nc2nccc(Nc3cc(C4CCCC4)[nH]n3)n2)CC1)NC1CCN(C2CC2)CC1` (centres unmarked) [Compound 63], the Dmax at 2 µM on MycN Protein fell in the range of 50 to 79%; at MycC Protein, 20 to 49%.

`O=C(NC1CCN(CCO)CC1)N[C@H]1CC[C@H](Nc2nccc(Nc3cc(C4CCCC4)[nH]n3)n2)CC1` [Compound 70, 1-((1R,4R)-4-((4-((5-cyclopentyl-1H-pyrazol-3-yl)amino)pyrimidin-2-yl)amino)cyclohexyl)-3-(1-(2-hydroxyethyl)piperidin-4-yl)urea]: the Dmax at 2 µM on MycN Protein was less than 20%; at MycC Protein, 20 to 49%.

In the case of `O=C(NC1CCN(Cc2ccccn2)CC1)N[C@H]1CC[C@H](Nc2nccc(Nc3cc(C4CCCC4)[nH]n3)n2)CC1` [Compound 72, 1-((1R,4R)-4-((4-((5-cyclopentyl-1H-pyrazol-3-yl)amino)pyrimidin-2-yl)amino)cyclohexyl)-3-(1-(pyridin-2-ylmethyl)piperidin-4-yl)urea], the Dmax at 2 µM is less than 20% on MycN Protein and 20 to 49% at MycC Protein.

For `Cc1cc(Nc2ccnc(N[C@H]3CC[C@H](NC(=O)NC4CCN(Cc5ccccn5)CC4)CC3)n2)n[nH]1` [Compound 73, 1-((1R,4R)-4-((4-((5-methyl-1H-pyrazol-3-yl)amino)pyrimidin-2-yl)amino)cyclohexyl)-3-(1-(pyridin-2-ylmethyl)piperidin-4-yl)urea], the Dmax at 2 µM on MycN Protein and at MycC Protein was less than 20% throughout.
